Test results as given in the supplement of paper PMC11451515.

Tested on: NOMO1
Assay: cell viability relative to DMSO control; higher = less cytotoxic
Conditions: 48 h
How it was run: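 Library compounds in DMSO were pin-dosed into 1536-well plates (5 μl) holding NOMO1 or SEM (500 cells/well) or P12-Ichikawa (1000 cells/well) leukemia cells, across an 11-point threefold series of 47 μM to 0.79 nM. Each cell line had been adapted for at least four passages in each medium. CellTiter-Glo One luminescence was read after 48 h at 37°C. Viability is the per-plate percentage relative to DMSO wells, with cell-free wells as background.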

[1] = HPLM + 10% dialyzed FBS, 0.000781 µM
[2] = HPLM + 10% dialyzed FBS, 0.00234 µM
[3] = HPLM + 10% dialyzed FBS, 0.00702 µM
[4] = HPLM + 10% dialyzed FBS, 0.0211 µM
[5] = HPLM + 10% dialyzed FBS, 0.0632 µM
[6] = HPLM + 10% dialyzed FBS, 0.19 µM
[7] = HPLM + 10% dialyzed FBS, 0.569 µM
[8] = HPLM + 10% dialyzed FBS, 1.71 µM
[9] = HPLM + 10% dialyzed FBS, 5.12 µM
[10] = HPLM + 10% dialyzed FBS, 15.4 µM
[11] = HPLM + 10% dialyzed FBS, 46.1 µM
[12] = RPMI 5 mM glucose + 10% FBS, 0.000781 µM
[13] = RPMI 5 mM glucose + 10% FBS, 0.00234 µM
[14] = RPMI 5 mM glucose + 10% FBS, 0.00702 µM
[15] = RPMI 5 mM glucose + 10% FBS, 0.0211 µM
[16] = RPMI 5 mM glucose + 10% FBS, 0.0632 µM
[17] = RPMI 5 mM glucose + 10% FBS, 0.19 µM
[18] = RPMI 5 mM glucose + 10% FBS, 0.569 µM
[19] = RPMI 5 mM glucose + 10% FBS, 1.71 µM
[20] = RPMI 5 mM glucose + 10% FBS, 5.12 µM
[21] = RPMI 5 mM glucose + 10% FBS, 15.4 µM
[22] = RPMI 5 mM glucose + 10% FBS, 46.1 µM
[23] = RPMI 5 mM glucose + 10% dialyzed FBS, 0.000781 µM
[24] = RPMI 5 mM glucose + 10% dialyzed FBS, 0.00234 µM
[25] = RPMI 5 mM glucose + 10% dialyzed FBS, 0.00702 µM
[26] = RPMI 5 mM glucose + 10% dialyzed FBS, 0.0211 µM
[27] = RPMI 5 mM glucose + 10% dialyzed FBS, 0.0632 µM
[28] = RPMI 5 mM glucose + 10% dialyzed FBS, 0.19 µM
[29] = RPMI 5 mM glucose + 10% dialyzed FBS, 0.569 µM
[30] = RPMI 5 mM glucose + 10% dialyzed FBS, 1.71 µM
[31] = RPMI 5 mM glucose + 10% dialyzed FBS, 5.12 µM
[32] = RPMI 5 mM glucose + 10% dialyzed FBS, 15.4 µM
[33] = RPMI 5 mM glucose + 10% dialyzed FBS, 46.1 µM

Row | SMILES | cell viability [1] | cell viability [2] | cell viability [3] | cell viability [4] | cell viability [5] | cell viability [6] | cell viability [7] | cell viability [8] | cell viability [9] | cell viability [10] | cell viability [11] | cell viability [12] | cell viability [13] | cell viability [14] | cell viability [15] | cell viability [16] | cell viability [17] | cell viability [18] | cell viability [19] | cell viability [20] | cell viability [21] | cell viability [22] | cell viability [23] | cell viability [24] | cell viability [25] | cell viability [26] | cell viability [27] | cell viability [28] | cell viability [29] | cell viability [30] | cell viability [31] | cell viability [32] | cell viability [33]
1 | CCC[C@H](N[C@@H](C)C(=O)N1[C@H](C(=O)O)C[C@@H]2CCCC[C@@H]21)C(=O)OCC | 115% | 124% | 119% | 119% | 105% | 102% | 115% | 89.4% | 36% | 54.1% | 43.9% | 97.4% | 101% | 115% | 109% | 111% | 106% | 105% | 95.3% | 86.7% | 78.9% | 64.6% | 114% | 110% | 118% | 116% | 108% | 109% | 96.2% | 87.5% | 66.4% | 72.6% | 48.2%
2 | Oc1ccc(C2CCN(c3ccnc4ccccc34)CC2)cc1O | 101% | 107% | 115% | 101% | 123% | 124% | 113% | 123% | 94.1% | 82.9% | 55.6% | 108% | 109% | 97.5% | 101% | 107% | 123% | 108% | 120% | 98.9% | 95.7% | 48.6% | 91.9% | 99% | 97.9% | 83.8% | 104% | 96.4% | 103% | 109% | 111% | 98.1% | 70.9%
3 | [NH2][Pt]([NH2])([Cl])[Cl] | 94.8% | 110% | 91.2% | 103% | 121% | 110% | 93.8% | 99.4% | 95.5% | 90.5% | 94% | 83.7% | 92.2% | 79.8% | 99.6% | 89.7% | 103% | 85.9% | 88.1% | 84.6% | 82.4% | 81.3% | 90% | 90.6% | 88% | 85.8% | 97.4% | 94.7% | 96.8% | 96% | 94.9% | 89.3% | 101%
4 | CC(C)n1nc(-c2ccc3oc(N)nc3c2)c2c(N)ncnc21 | 96.9% | 75.9% | 65.1% | 62.6% | 55.3% | 53.6% | 52.2% | 55% | 50.6% | 33.1% | 26.3% | 93.1% | 96.5% | 83.3% | 77.6% | 66.6% | 59.2% | 56.8% | 50.3% | 49.9% | 38.7% | 34.4% | 83.4% | 74.5% | 67.2% | 58.5% | 59.6% | 52.6% | 51.7% | 48.6% | 43.2% | 35.7% | 31.3%
5 | CC(C)Nc1cc(C(F)(F)F)cc2nc(NC(=O)c3cccnc3)nn12 | 120% | 116% | 118% | 126% | 123% | 101% | 119% | 85.2% | 80.8% | 71.6% | 54.2% | 106% | 107% | 115% | 106% | 98.1% | 118% | 116% | 52.6% | 45.9% | 56.5% | 64.8% | 108% | 109% | 115% | 119% | 125% | 103% | 98.2% | 55% | 50.4% | 56.9% | 62.9%
6 | CN(C)C(=O)c1ccc([S+](=O)([O-])c2ccc(NC(=O)[C@@](C)(O)C(F)(F)F)c(Cl)c2)cc1 | 104% | 104% | 114% | 123% | 95.9% | 128% | 126% | 105% | 91.3% | 33% | 10.2% | 104% | 109% | 102% | 105% | 114% | 101% | 112% | 99.4% | 105% | 38.7% | 13.5% | 95.9% | 109% | 116% | 118% | 108% | 104% | 104% | 91.2% | 99.8% | 89.7% | 60.4%
7 | Cc1ncc(OC[C@@]2(c3cccc(F)c3)C[C@H]2C(=O)Nc2ccc(F)cn2)c(C)n1 | 108% | 106% | 122% | 120% | 125% | 129% | 117% | 105% | 120% | 117% | 108% | 105% | 93.8% | 125% | 92.7% | 105% | 113% | 107% | 92.2% | 102% | 101% | 116% | 102% | 107% | 105% | 106% | 119% | 110% | 97% | 101% | 112% | 110% | 116%
8 | CCOC(=O)[C@H](CCc1ccccc1)N[C@@H](C)C(=O)N1CCC[C@H]1C(=O)O | 128% | 105% | 117% | 134% | 125% | 119% | 108% | 119% | 110% | 99.8% | 102% | 114% | 105% | 111% | 102% | 102% | 105% | 97.7% | 103% | 98.7% | 93.3% | 103% | 97.9% | 109% | 116% | 122% | 116% | 123% | 112% | 110% | 103% | 96% | 99.5%
9 | C1CCC(C(CC2CCCCN2)C2CCCCC2)CC1 (stereo unspecified) | 121% | 111% | 127% | 111% | 140% | 127% | 132% | 150% | 131% | 118% | 5.65% | 108% | 116% | 133% | 144% | 116% | 122% | 132% | 115% | 131% | 121% | 6.9% | 110% | 108% | 124% | 107% | 114% | 130% | 114% | 131% | 116% | 98.1% | 6.09%
10 | ClC1=CC(=CC=C1)N2CCN(CCCN3\N=C4\C=C/C=C\N4C3=O)CC2 | – | – | – | – | – | – | – | – | – | – | – | 113% | 121% | 123% | 137% | 126% | 137% | 142% | 147% | 137% | 141% | 137% | – | – | – | – | – | – | – | – | – | – | –
11 | C[S+](=O)([O-])N(Cc1ccco1)CC(O)Cn1c2ccccc2c2ccccc21 (stereo unspecified) | 95.3% | 99% | 102% | 105% | 86.5% | 91.2% | 93.9% | 82.8% | 83.6% | 73.6% | 35.2% | 88.4% | 91.6% | 91.4% | 92.2% | 94.3% | 94% | 90% | 80.7% | 79.6% | 86.3% | 52.8% | 97.9% | 89.2% | 93.3% | 90.3% | 93.3% | 90.1% | 97.8% | 85.1% | 80.8% | 77.9% | 50.8%
12 | CCC(=O)OCC(=O)[C@@]1(OC(=O)CC)[C@@H](C)C[C@H]2[C@@H]3CCC4=CC(=O)C=C[C@]4(C)[C@@]3(F)[C@@H](O)C[C@@]21C | 117% | 130% | 111% | 109% | 115% | 97.4% | 106% | 62.7% | 43.5% | 28.3% | 25.4% | 99.3% | 98.8% | 107% | 112% | 112% | 105% | 116% | 95% | 84.5% | 16.9% | 18.8% | 110% | 112% | 117% | 115% | 118% | 136% | 108% | 79.1% | 84.3% | 26.4% | 23.9%
13 | CC1=CC=CC=C1CN2C(=O)C/3=C(/CCN(CC4=CC=CC=C4)C3)N\5CC\N=C25 | – | – | – | – | – | – | – | – | – | – | – | 109% | 118% | 121% | 124% | 134% | 113% | 116% | 119% | 59% | 20.1% | 21.4% | 132% | 118% | 122% | 126% | 120% | 122% | 133% | 86.6% | 69.9% | 25.9% | 23.6%
14 | N=C(N)NC(=O)c1nc(Cl)c(N)nc1N | 110% | 114% | 132% | 133% | 134% | 130% | 133% | 54.1% | 35.8% | 35% | 36.9% | – | – | – | – | – | – | – | – | – | – | – | 112% | 134% | 123% | 134% | 133% | 129% | 136% | 72.5% | 33.3% | 29.2% | 29.1%
15 | CC[C@H]1/C=C\C=C/C[C@@H](C)[C@H](O)[C@@](C)(O)C(=O)[C@@H](C)[C@H](O)[C@@H](C)C(=O)[C@@H](C)[C@H](O)[C@@H](C)/C=C/C(=O)O[C@@H]2[C@H](C)[C@H](CC1)O[C@]1(CC[C@H](C)[C@H](C[C@@H](C)O)O1)[C@H]2C | 74.4% | 89.4% | 105% | 117% | 103% | 106% | 108% | 55.4% | 40.7% | 31.6% | 5.57% | 83% | 86.4% | 87.1% | 88.9% | 82.7% | 104% | 92.7% | 44.7% | 39.1% | 37.6% | 4.56% | 81.4% | 89.2% | 92.9% | 83.9% | 75.1% | 94.4% | 79.7% | 54.2% | 39.9% | 31.6% | 4.92%
